# Experimental data: patent US20240000827A1, “COMPOSITIONS COMPRISING METHYL CYCLODEXTRINS FOR THE TREATMENT AND/OR PREVENTION OF HEPATIC STEATOSIS” (ROQUETTE FRERES, priority 2020, published 2024)
# Tests used:
# Type in all cases: in vivo, Golden Syrian hamster
# [1] = Example 2 preventive effect model: body weight and organ weights; settings: hypercholesterol diet (2.5% cholesterol) + 3% by weight cyclodextrin in feed, end of 42 days, N=10
# Description: (§1) Male LVG golden Syrian hamsters were used for the studies below. The base feed consisted of the food AO4C sold by the company SAFE diet. In the hypercholesterol diets, cholesterol was added (provided by MP Biomedicals)
# (§2) Different cyclodextrins were tested • firstly, hydroxypropyl-β-cyclodextrin (HPBCD) sold by the Applicant under the name “KLEPTOSE® HPB” (oral grade); • secondly, methyl-β-cyclodextrin (MCD) “KLEPTOSE® CRYSMEB”, owned by the Applicant.
# (§3) In this study, 40 Golden Syrian origin LVG hamsters were divided into 4 groups of 10 and subjected for 6 weeks to the following diets: • “Control” group: normal diet • “Control HC” group: hypercholesterol diet (containing 2.5% by weight of cholesterol) • “HC+Crysmeb” group: hypercholesterol diet (containing 2.5% by weight of cholesterol)+3% by weight of Crysmeb (MCD) • “HC+HPBCD” group: hypercholesterol diet (containing 2.5% by weight of cholesterol)+3% by weight of HPBCD.
# At the end of 42 days of study, the animals were sacrificed and the weight of the various organs was measured.
# [2] = Example 2 preventive effect model: plasma triglyceride levels
# Description: as §1, §2, §3
# [3] = system: Golden Syrian origin LVG hamsters; experiment: Example 2 preventive effect model: biochemical data measured in the liver (lipid storage); settings: end of the 42 days of treatment, HC diet + 3% cyclodextrin
# Description: as §1, §2, §3
# Table 3 provides the biochemical data measured in the liver of the animals at the end of the 42 days of treatment.
# [4] = system: genes involved in de novo lipodogenesis, de novo cholesterol synthesis and cholesterol removal; experiment: Example 2: messenger RNA expressed in the liver; settings: liver mRNA at end of study
# Description: as §1, §2, §3
# The levels of expression of different genes involved in de novo lipodogenesis (FIG. 3) and in de novo cholesterol synthesis (FIG. 5) and cholesterol removal (FIG. 6) were measured in the liver at the end of the study, in the 4 groups of animals.
structure (smiles),measurement,setting,value
"CC(O)COC[C@H]1O[C@@H]2O[C@H]3[C@H](O)[C@@H](O)[C@@H](O[C@H]4[C@H](O)[C@@H](O)[C@@H](O[C@H]5[C@H](O)[C@@H](O)[C@@H](O[C@H]6[C@H](O)[C@@H](O)[C@@H](O[C@H]7[C@H](O)[C@@H](O)[C@@H](O[C@H]8[C@H](O)[C@@H](O)[C@@H](O[C@H]1[C@H](O)[C@H]2O)O[C@@H]8COCC(C)O)O[C@@H]7COCC(C)O)O[C@@H]6COCC(C)O)O[C@@H]5COCC(C)O)O[C@@H]4COCC(C)O)O[C@@H]3COCC(C)O (stereo partly drawn) [HPBCD, hydroxypropyl-β-cyclodextrin]",weight of the adipose tissue of epididymis (Average),[1],1.4
same,weight of the liver (Average),[1],4.5
same,plasma triglyceride level TG D0 (Average),"[2]; day 0 (beginning of study), HC diet + 3% cyclodextrin",3.03
same,plasma triglyceride level TG D14 (Average),"[2]; day 14, HC diet + 3% cyclodextrin",1.28
same,plasma triglyceride level TG D28 (Average),"[2]; day 28, HC diet + 3% cyclodextrin",1.23
same,plasma triglyceride level TG D43 (Average),"[2]; day 43 (end of study), HC diet + 3% cyclodextrin",1.58
same,% lipids (g of lipid in liver/animal) (Average),[3],1.04 g of lipid in liver/animal
same,% lipids (g/100 g of liver) D0 (Average),[3],23.02 g/100 g of liver
same,CHOL (mg of chol in liver/animal) (Average),[3],154.19 mg of chol in liver/animal
same,CHOL (mg/g liver) (Average),[3],32.98 mg/g liver
same,TG (mg of TG in liver/animal) (Average),[3],92.12 mg of TG in liver/animal
same,TG (mg/g liver) (Average),[3],22.73 mg/g liver
same,"expression of genes involved in de novo lipogenesis (FAS, ACC, SCD1, SREBP1)",[4]; FIG. 3,inhibition of the expression of the SCD1 and ACC genes
same,"expression of genes involved in de novo cholesterol synthesis (SREB2, CYP51a1, HMGCR)",[4]; FIG. 5,little effect
